According to patent US9505762B2, “Purine derivatives as CB2 receptor agonists” (Hoffmann-La Roche Inc., priority 2013, dated 2016):

What was measured:
human CB2 receptors = human CB2 receptors (Homo sapiens (Human), UniProt P34972); assay: functional cAMP assay, CB2; type: cell-based; conditions: CHO cells expressing human CB2
human CB1 receptors = human CB1 receptors (Homo sapiens (Human), UniProt P21554); assay: functional cAMP assay, CB1; type: cell-based; conditions: CHO cells expressing human CB1
Sequence of human CB1 receptors (P21554 whole entry): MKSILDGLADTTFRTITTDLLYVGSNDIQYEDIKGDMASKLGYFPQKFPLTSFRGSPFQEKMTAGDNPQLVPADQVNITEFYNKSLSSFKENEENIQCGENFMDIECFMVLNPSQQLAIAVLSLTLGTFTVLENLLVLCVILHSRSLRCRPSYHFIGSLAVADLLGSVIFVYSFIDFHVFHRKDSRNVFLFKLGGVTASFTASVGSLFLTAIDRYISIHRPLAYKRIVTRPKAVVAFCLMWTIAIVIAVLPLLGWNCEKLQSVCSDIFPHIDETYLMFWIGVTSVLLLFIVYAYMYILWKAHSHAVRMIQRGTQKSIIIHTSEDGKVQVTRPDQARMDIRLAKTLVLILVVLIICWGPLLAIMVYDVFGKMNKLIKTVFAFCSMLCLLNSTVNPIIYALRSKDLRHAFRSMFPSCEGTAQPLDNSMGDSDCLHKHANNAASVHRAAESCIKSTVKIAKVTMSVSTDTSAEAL

Sequence of human CB2 receptors (P34972 whole entry): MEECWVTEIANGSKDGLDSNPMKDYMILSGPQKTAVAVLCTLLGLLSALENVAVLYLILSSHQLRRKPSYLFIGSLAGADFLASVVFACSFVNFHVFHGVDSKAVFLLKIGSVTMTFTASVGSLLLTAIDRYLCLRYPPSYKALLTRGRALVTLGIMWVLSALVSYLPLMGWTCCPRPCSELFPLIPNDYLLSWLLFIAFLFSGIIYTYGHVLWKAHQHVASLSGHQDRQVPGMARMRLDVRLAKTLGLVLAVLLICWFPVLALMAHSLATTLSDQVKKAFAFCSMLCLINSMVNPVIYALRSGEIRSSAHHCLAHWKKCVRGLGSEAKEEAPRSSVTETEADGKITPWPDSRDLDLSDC

Row | SMILES | EC50 (human CB2 receptors) | EC50 (human CB1 receptors)
1 | CC(C)(C)c1nc(N2CCC(F)(F)C2)c2ncn(C3CS(=O)(=O)C3)c2n1 [Example 27, 3-[2-tert-butyl-6-(3,3-difluoropyrrolidin-1-yl)purin-9-yl]thietane 1,1-dioxide] | 14.1 nM | > 10000 nM
2 | COCCn1cnc2c(N3CCC(O)C3)nc(C(C)(C)C)nc21 (stereo not drawn) [Example 37, 1-[2-tert-butyl-9-(2-methoxyethyl)purin-6-yl]pyrrolidin-3-ol] | 274 nM | > 10000 nM
3 | CC(C)(C)Nc1nc(N2CCC(F)(F)C2)c2ncn(Cc3ccccc3S(C)(=O)=O)c2n1 [Example 114, N-tert-butyl-6-(3,3-difluoropyrrolidin-1-yl)-9-[(2-methylsulfonylphenyl)methyl]purin-2-amine] | 45.5 nM | > 10000 nM
4 | Cc1nonc1Cn1cnc2c(N3CCC(O)C3)nc(C(C)(C)C)nc21 (stereo not drawn) [Example 43, 1-[2-tert-butyl-9-[(4-methyl-1,2,5-oxadiazol-3-yl)methyl]purin-6-yl]pyrrolidin-3-ol] | 16.6 nM | > 10000 nM
5 | Cc1noc(Cn2cnc3c(N4CCC(F)(F)C4)nc(NC(C)(C)C)nc32)n1 [Example 115, N-tert-butyl-6-(3,3-difluoropyrrolidin-1-yl)-9-[(3-methyl-1,2,4-oxadiazol-5-yl)methyl]purin-2-amine] | 195 nM | > 10000 nM
6 | CC1(O)CCN(c2nc(C(C)(C)C)nc3c2ncn3Cc2ccccc2Cl)C1 (stereo not drawn) [Example 64, 1-[2-tert-butyl-9-[(2-chlorophenyl)methyl]purin-6-yl]-3-methylpyrrolidin-3-ol] | 13.4 nM | > 10000 nM
7 | Cn1nnnc1Cn1cnc2c(N3CCC(O)C3)nc(C(C)(C)C)nc21 (stereo not drawn) [Example 30, 1-[2-tert-butyl-9-[(1-methyltetrazol-5-yl)methyl]purin-6-yl]pyrrolidin-3-ol] | 301 nM | > 10000 nM
8 | Cc1noc(Cn2cnc3c(N4CC[C@H](O)C4)nc(C(C)(C)C)nc32)n1 [Example 101, (3S)-1-[2-tert-butyl-9-[(3-methyl-1,2,4-oxadiazol-5-yl)methyl]purin-6-yl]pyrrolidin-3-ol] | 370 nM | > 10000 nM
9 | CC(C)(C)c1nc(N2CC(O)(C(F)(F)F)C2)c2ncn(Cc3ncccc3Cl)c2n1 [Example 167, 1-[2-tert-butyl-9-[(3-chloropyridin-2-yl)methyl]purin-6-yl]-3-(trifluoromethyl)azetidin-3-ol] | 35 nM | > 10000 nM
10 | CC(C)(C)c1nc(N2CC[C@H](O)C2)c2ncn(Cc3ccccc3Cl)c2n1 [Example 97, (3S)-1-[2-tert-butyl-9-[(2-chlorophenyl)methyl]purin-6-yl]pyrrolidin-3-ol] | 1.8 nM | > 10000 nM
11 | CC1(O)CN(c2nc(C(C)(C)C)nc3c2ncn3Cc2ncccc2Cl)C1 [Example 169, 1-[2-tert-butyl-9-[(3-chloropyridin-2-yl)methyl]purin-6-yl]-3-methylazetidin-3-ol] | 51.4 nM | > 10000 nM
12 | CC(C)(C)c1nc(N2CCC(O)C2)c2ncn(CCc3ccccc3)c2n1 (stereo not drawn) [Example 38, 1-[2-tert-butyl-9-(2-phenylethyl)purin-6-yl]pyrrolidin-3-ol] | 20.3 nM | > 10000 nM
13 | CC(C)(C)c1nc(N2CCC(F)(F)C2)c2ncn(CC(=O)c3ccccc3Cl)c2n1 [Example 17, 2-[2-tert-butyl-6-(3,3-difluoropyrrolidin-1-yl)purin-9-yl]-1-(2-chlorophenyl)ethanone] | 3.5 nM | > 10000 nM
14 | CC(C)(C)c1nc(N2CCC(F)(F)C2)c2ncn(C3CCOC3)c2n1 (stereo not drawn) [Example 12, 2-tert-butyl-6-(3,3-difluoropyrrolidin-1-yl)-9-(oxolan-3-yl)purine] | 3.1 nM | > 10000 nM
15 | CC(C)(C)COc1nc(N2CCC(C)(O)C2)c2ncn(Cc3ccccc3Cl)c2n1 (stereo not drawn) [Example 131, 1-[9-[(2-chlorophenyl)methyl]-2-(2,2-dimethylpropoxy)purin-6-yl]-3-methyl pyrrolidin-3-ol] | 66.7 nM | > 10000 nM
